The values below come from US20230077362A1 (CORTEVA AGRISCIENCE LLC, priority 2019, published 2023).

Data set [1] relates to Cabbage Looper (Trichoplusia ni) ("CL"), second instar larvae. Put plainly: Bioassay on cabbage looper (CL), 128-well diet tray assay. In kind it is in vivo. The conditions noted are these: for CL rating / mortality at 50 µg/cm2: Table ABC, species CL; for CL rating: C = not tested, D = no activity noticed; for pest or weed control at 50 µg/cm2 / mortality at 50 µg/cm2: Trichoplusia ni; for pest or weed control at 50 µg/cm2: read-out: CL rating; for mortality at 50 µg/cm2: 128-well diet tray assay, second instar larvae, read-out: CL rating (% control or mortality class). In short, it runs like this:
(§1)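 Mortality (%) is scored well by well after five to seven days at 25° C. on a 14:10 light:dark regime. The value given is the mean of eight wells.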

The test system of data set [2] is Beet Armyworm (Spodoptera exigua) ("BAW"), second instar larvae. As to the kind of experiment: Bioassay on beet armyworm (BAW), 128-well diet tray assay. In kind it is in vivo. The note with it: for BAW rating / BAW rating (% control or mortality class): Table ABC, species BAW; for BAW rating: C = not tested, D = no activity noticed; for pest or weed control at 50 µg/cm2: Spodoptera exigua, read-out: BAW rating; for BAW rating (% control or mortality class): 128-well diet tray assay, second instar larvae. In a few lines:
as §1

For the molecule `Cc1ccc(COCC(F)(F)F)c(N2C(=O)CS/C2=N\C(=O)Nc2ccc(-c3ncn(-c4ccccc4)n3)cc2C)c1` [Compound J780], in data set [1], the CL rating result is on record as “A (50-100)”. Further, the BAW rating result in data set [2] is on record as “A (50-100)”.

On to `Cc1ccc(COCCC(F)(F)F)c(N2C(=O)CS/C2=N\C(=O)Nc2ccc(-c3ncn(-c4ccccc4)n3)cc2C)c1` [Compound J781, (Z)-1-(3-(5-Methyl-2-((3,3,3-trifluoropropoxy)methyl)phenyl)-4-oxothiazolidin-2-ylidene)-3-(2-methyl-4-(1-phenyl-1H-1,2,4-triazol-3-yl)phenyl)urea], for which the pest or weed control at 50 µg/cm2 in data set [1] and in data set [2] was 50 to 100% each time.

As to `Cc1ccc(COCC(F)(F)F)c(N2C(=O)CS/C2=N\C(=O)Nc2ccc(-c3ncn(-c4ccc(F)cc4)n3)cc2F)c1` [Compound J782, (Z)-1-(2-Fluoro-4-(1-(4-fluorophenyl)-1H-1,2,4-triazol-3-yl)phenyl)-3-(3-(5-methyl-2-((2,2,2-trifluoroethoxy)methyl)phenyl)-4-oxothiazolidin-2-ylidene)urea], the pest or weed control at 50 µg/cm2 in data set [1] and in data set [2] was 50 to 100% each time.

For the molecule `CCCc1ccc(C)cc1N1C(=O)CS/C1=N\C(=O)Nc1ccc(-c2ncn(-c3ccc(N(C(=O)OC)C(F)(F)F)cc3)n2)cc1F` [Compound J783, Methyl (Z)-(4-(3-(3-fluoro-4-(3-(3-(5-methyl-2-propylphenyl)-4-oxothiazolidin-2-ylidene)ureido)phenyl)-1H-1,2,4-triazol-1-yl)phenyl)(trifluoromethyl)carbamate], the pest or weed control at 50 µg/cm2 in data set [1] and in data set [2] was 50 to 100% each time.

Take `CCCc1ccc(C)cc1N1C(=O)CS/C1=N\C(=O)Nc1ccc(-c2ncn(-c3ccc(N(C(=O)OC)C(F)(F)F)cc3)n2)cc1C` [Compound J784]: the CL rating result in data set [1] is recorded as “A (50-100)”. Further, the BAW rating result in data set [2] is on record as “A (50-100)”.

Regarding `Cc1ccc(COCC(F)(F)F)c(N2C(=O)CS/C2=N\C(=O)Nc2ccc(-n3cnc(-c4ccc(OC(F)(F)F)cc4)c3)cc2Cl)c1` [Compound J786, (Z)-1-(2-Chloro-4-(4-(4-(trifluoromethoxy)phenyl)-1H-imidazol-1-yl)phenyl)-3-(3-(5-methyl-2-((2,2,2-trifluoroethoxy)methyl)phenyl)-4-oxothiazolidin-2-ylidene)urea], the mortality (as a rule, the percentage killed) at 50 µg/cm2 in data set [1] lay in the range of 50 to 100%. Further, the “BAW rating (% control or mortality class)” value in data set [2] is given as “A (50-100)”.

For the molecule `Cc1ccc(COCC(F)F)c(N2C(=O)CS/C2=N\C(=O)Nc2ccc(-n3cnc(-c4ccc(OC(F)(F)F)cc4)c3)cc2Cl)c1` [Compound J787, (Z)-1-(2-Chloro-4-(4-(4-(trifluoromethoxy)phenyl)-1H-imidazol-1-yl)phenyl)-3-(3-(2-((2,2-difluoroethoxy)methyl)-5-methylphenyl)-4-oxothiazolidin-2-ylidene)urea], the mortality at 50 µg/cm2 in data set [1] lay in the range of 50 to 100%. In addition, in data set [2], the “BAW rating (% control or mortality class)” value is “A (50-100)”.

`COCc1ccc(C)cc1N1C(=O)CS/C1=N\C(=O)Nc1ccc(-n2cnc(-c3ccc(OC(F)(F)F)cc3)c2)cc1Cl` [Compound J788, (Z)-1-(2-Chloro-4-(4-(4-(trifluoromethoxy)phenyl)-1H-imidazol-1-yl)phenyl)-3-(3-(2-(methoxymethyl)-5-methylphenyl)-4-oxothiazolidin-2-ylidene)urea]: the mortality at 50 µg/cm2 in data set [1] was 50 to 100%. Further, the “BAW rating (% control or mortality class)” value in data set [2] was “A (50-100)”.

With `COCc1ccc(N(C)C)cc1N1C(=O)CS/C1=N\C(=O)Nc1ccc(-n2cnc(-c3ccc(OC(F)(F)F)cc3)c2)cc1Cl` [Compound J789, (Z)-1-(2-Chloro-4-(4-(4-(trifluoromethoxy)phenyl)-1H-imidazol-1-yl)phenyl)-3-(3-(5-(dimethylamino)-2-(methoxymethyl)phenyl)-4-oxothiazolidin-2-ylidene)urea], the mortality at 50 µg/cm2 in data set [1] was 50 to 100%. Further, in data set [2], the “BAW rating (% control or mortality class)” value was “A (50-100)”.

For the molecule `Cc1ccc(OCCC(F)(F)F)c(N2C(=O)CS/C2=N\C(=O)Nc2ccc(-n3cnc(-c4ccc(OC(F)(F)F)cc4)c3)cc2Cl)c1` [Compound J790, (Z)-1-(2-Chloro-4-(4-(4-(trifluoromethoxy)phenyl)-1H-imidazol-1-yl)phenyl)-3-(3-(5-methyl-2-(3,3,3-trifluoropropoxy)phenyl)-4-oxothiazolidin-2-ylidene)urea], in data set [1], the mortality at 50 µg/cm2 is 50 to 100%. For the same molecule, the “BAW rating (% control or mortality class)” value in data set [2] is “A (50-100)”.

As to `COC(c1ccc(C)cc1N1C(=O)CS/C1=N\C(=O)Nc1ccc(-n2cnc(-c3ccc(OC(F)(F)F)cc3)c2)cc1Cl)C(F)(F)F` (stereo not drawn) [Compound J791, (Z)-1-(2-Chloro-4-(4-(4-(trifluoromethoxy)phenyl)-1H-imidazol-1-yl)phenyl)-3-(3-(5-methyl-2-(2,2,2-trifluoro-1-methoxyethyl)phenyl)-4-oxothiazolidin-2-ylidene)urea], in data set [1], the mortality at 50 µg/cm2 lay in the range of 50 to 100%. Further, the “BAW rating (% control or mortality class)” value in data set [2] is recorded as “A (50-100)”.

`Cc1ccc(C(C)C)c(N2C(=O)CS/C2=N\C(=O)Nc2ccc(-n3cnc(-c4ccc(OC(F)(F)F)cc4)c3)cc2Cl)c1` [Compound J792, (Z)-1-(2-Chloro-4-(4-(4-(trifluoromethoxy)phenyl)-1H-imidazol-1-yl)phenyl)-3-(3-(2-isopropyl-5-methylphenyl)-4-oxothiazolidin-2-ylidene)urea]: the mortality at 50 µg/cm2 in data set [1] lay in the range of 50 to 100%. Also, the “BAW rating (% control or mortality class)” value in data set [2] is “A (50-100)”.

For `Cc1ccc(COCC(F)(F)F)c(N2C(=O)CS/C2=N\C(=O)Nc2ccc(-c3ncn(-c4ccc(C(F)(F)C(F)(F)F)cc4)n3)cc2F)c1` [Compound J793, (Z)-1-(2-Fluoro-4-(1-(4-(perfluoroethyl)phenyl)-1H-1,2,4-triazol-3-yl)phenyl)-3-(3-(5-methyl-2-((2,2,2-trifluoroethoxy)methyl)phenyl)-4-oxothiazolidin-2-ylidene)urea], the mortality at 50 µg/cm2 in data set [1] was in the range of 50 to 100%. For the same molecule, the “BAW rating (% control or mortality class)” value in data set [2] is given as “A (50-100)”.

As to `Cc1ccc(COCC(F)(F)F)c(N2C(=O)CS/C2=N\C(=O)Nc2ccc(-c3ncn(-c4ccc(C(F)(F)C(F)(F)F)cc4)n3)cc2C)c1` [Compound J794, (Z)-1-(3-(5-Methyl-2-((2,2,2-trifluoroethoxy)methyl)phenyl)-4-oxothiazolidin-2-ylidene)-3-(2-methyl-4-(1-(4-(perfluoroethyl)phenyl)-1H-1,2,4-triazol-3-yl)phenyl)urea], the mortality at 50 µg/cm2 in data set [1] was 50 to 100%. Besides, the “BAW rating (% control or mortality class)” value in data set [2] is listed as “A (50-100)”.

With `CCOCc1ccc(C)cc1N1C(=O)CS/C1=N\C(=O)Nc1ccc(-c2ncn(-c3ccc(C(F)(F)C(F)(F)F)cc3)n2)cc1F` [Compound J795, (Z)-1-(3-(2-(Ethoxymethyl)-5-methylphenyl)-4-oxothiazolidin-2-ylidene)-3-(2-fluoro-4-(1-(4-(perfluoroethyl)phenyl)-1H-1,2,4-triazol-3-yl)phenyl)urea], the mortality at 50 µg/cm2 in data set [1] was in the range of 50 to 100%. Also, in data set [2], the “BAW rating (% control or mortality class)” value is recorded as “A (50-100)”.

On to `CCOCc1ccc(C)cc1N1C(=O)CS/C1=N\C(=O)Nc1ccc(-c2ncn(-c3ccc(C(F)(F)C(F)(F)F)cc3)n2)cc1C` [Compound J796, (Z)-1-(3-(2-(Ethoxymethyl)-5-methylphenyl)-4-oxothiazolidin-2-ylidene)-3-(2-methyl-4-(1-(4-(perfluoroethyl)phenyl)-1H-1,2,4-triazol-3-yl)phenyl)urea], for which the mortality at 50 µg/cm2 in data set [1] lay within 50 to 100%. Further, the “BAW rating (% control or mortality class)” value in data set [2] is “A (50-100)”.

For `Cc1cc(C)c(C)c(N2C(=O)CS/C2=N\C(=O)Nc2ccc(-c3ncn(-c4ccc(OC(F)(F)F)cc4)n3)cc2F)c1` [Compound J797, (Z)-1-(2-Fluoro-4-(1-(4-(trifluoromethoxy)phenyl)-1H-1,2,4-triazol-3-yl)phenyl)-3-(4-oxo-3-(2,3,5-trimethylphenyl)thiazolidin-2-ylidene)urea], the mortality at 50 µg/cm2 in data set [1] was in the range of 50 to 100%. Moreover, the “BAW rating (% control or mortality class)” value in data set [2] is “A (50-100)”.

Consider `COc1c(C)cccc1N1C(=O)CS/C1=N\C(=O)Nc1ccc(-c2ncn(-c3ccc(OC(F)(F)F)cc3)n2)cc1F` [Compound J798, (Z)-1-(2-Fluoro-4-(1-(4-(trifluoromethoxy)phenyl)-1H-1,2,4-triazol-3-yl)phenyl)-3-(3-(2-methoxy-3-methylphenyl)-4-oxothiazolidin-2-ylidene)urea], for which the mortality at 50 µg/cm2 in data set [1] is 50 to 100%. In addition, in data set [2], the “BAW rating (% control or mortality class)” value is listed as “A (50-100)”.

Regarding `Cc1ccc(C(F)(F)F)cc1N1C(=O)CS/C1=N\C(=O)Nc1ccc(-c2ncn(-c3ccc(OC(F)(F)F)cc3)n2)cc1F` [Compound J799, (Z)-1-(2-Fluoro-4-(1-(4-(trifluoromethoxy)phenyl)-1H-1,2,4-triazol-3-yl)phenyl)-3-(3-(2-methyl-5-(trifluoromethyl)phenyl)-4-oxothiazolidin-2-ylidene)urea], the mortality at 50 µg/cm2 in data set [1] fell in the range of 50 to 100%. Further, the “BAW rating (% control or mortality class)” value in data set [2] is “A (50-100)”.

Regarding `Cc1ccc(COCCF)c(N2C(=O)CS/C2=N\C(=O)Nc2ccc(-c3ncn(-c4ccc(OC(F)(F)C(F)(F)F)cc4)n3)cc2C)c1` [Compound J801, (Z)-1-(3-(2-((2-Fluoroethoxy)methyl)-5-methylphenyl)-4-oxothiazolidin-2-ylidene)-3-(2-methyl-4-(1-(4-(perfluoroethoxy)phenyl)-1H-1,2,4-triazol-3-yl)phenyl)urea], in data set [1], the mortality at 50 µg/cm2 lay within 50 to 100%. Also, in data set [2], the “BAW rating (% control or mortality class)” value is recorded as “A (50-100)”.

Regarding `Cc1ccc(COCC(F)(F)F)c(N2C(=O)CS/C2=N\C(=O)Nc2ccc(-c3n[nH]c(-c4ccccc4)n3)cc2)c1` [Compound J802, (Z)-1-(3-(5-Methyl-2-((2,2,2-trifluoroethoxy)methyl)phenyl)-4-oxothiazolidin-2-ylidene)-3-(4-(5-phenyl-1H-1,2,4-triazol-3-yl)phenyl)urea], the mortality at 50 µg/cm2 in data set [1] was 50 to 100%. The “BAW rating (% control or mortality class)” value in data set [2] is on record as “A (50-100)”.
